Experimental data from publication PMC4252478 (Biochemical pharmacology, 2014).
Where a chain is given by its changes, count along the chain named.

Legend:
hPXR mutants = format: cell-based, human; details: 21 alanine mutants, various MET concentrations, HepG2
hPXR [1] = target: T1, hPXR (Homo sapiens, UniProt O75469); details: HEK293T cells, 24 h; for PXR activation in the screen: 28 μM
T1 sequence (O75469 1-434): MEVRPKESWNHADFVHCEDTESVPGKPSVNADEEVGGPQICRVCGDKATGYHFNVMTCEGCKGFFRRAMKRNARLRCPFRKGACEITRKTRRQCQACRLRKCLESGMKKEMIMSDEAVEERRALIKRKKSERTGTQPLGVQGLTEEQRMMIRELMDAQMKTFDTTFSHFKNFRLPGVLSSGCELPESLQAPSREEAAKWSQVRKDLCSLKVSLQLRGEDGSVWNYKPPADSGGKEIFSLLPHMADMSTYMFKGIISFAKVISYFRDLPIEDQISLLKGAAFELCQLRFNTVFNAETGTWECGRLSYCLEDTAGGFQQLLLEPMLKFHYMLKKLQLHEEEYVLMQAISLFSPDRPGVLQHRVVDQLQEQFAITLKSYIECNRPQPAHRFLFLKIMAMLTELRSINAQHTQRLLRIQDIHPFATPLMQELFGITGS

hPXR R410A = target: T2, hPXR R410A (Homo sapiens, UniProt O75469, R410A); test: CYP3A4 promoter luciferase reporter assay in HepG2 cells, hPXR mutant R410A; format: cell-based; details: HepG2, 24 h, relative luciferase units (a.u.), DMSO 3.28
T2 sequence (O75469 1-434 R410A): T1 sequence (O75469 1-434) with R410A

[2] = target: T3, hPXR R410A mutant (CYP3A4 promoter) (Homo sapiens, UniProt O75469, R410A); test: as above; format: cell-based; details: human
T3 sequence (O75469 1-434 R410A): T1 sequence (O75469 1-434) with R410A

[3] = system: CYP3A4 and MDR1 expression; test: CYP3A4 and MDR1 expression in LS180 and LS174T intestine cells; format: cell-based, human; details: Western blot
[4] = system: HepG2, LS180, and LS174T cells; test: Cell viability assay; format: cell-based, human; details: 1.7 nM to 56 μM
hPXR [5] = target: T1, hPXR; test: CYP3A4 promoter luciferase reporter assay in HepG2 cells; details: HepG2, LS180 and LS174T cells, 24 h
[6] = system: CYP3A4 and MDR1 expression; test: CYP3A4 and MDR1 expression in human primary hepatocytes; format: cell-based; details: 48-h treatment, two donors
wild-type hPXR = target: T4, wild-type hPXR (Homo sapiens, UniProt O75469); test: CYP3A4 promoter luciferase reporter assay in HepG2 cells, wild-type hPXR; format: cell-based; details: HepG2, 24 h, relative luciferase units (a.u.), DMSO 0.40
T4 sequence (O75469 1-434): T1 sequence (O75469 1-434)

[7] = target: T5, wild-type hPXR (CYP3A4 promoter) (Homo sapiens, UniProt O75469); test: as above; format: cell-based; details: human
T5 sequence (O75469 1-434): T1 sequence (O75469 1-434)

[8] = target: hPXR and SRC-1 interaction (Homo sapiens, UniProt O75469); test: Mammalian two-hybrid assay in HepG2 cells; format: cell-based; details: 24 h, 5 μM rifampicin, 5, 10 or 20 μM MET
[9] = system: human carbonic anhydrase isoforms VII, XII, and XIII; details: ref [31]; cited from earlier work
[10] = system: human carbonic anhydrase isoforms I and III; details: ref [31]; cited from earlier work
[11] = target: T6, hPXR ligand-binding domain (Homo sapiens, UniProt O75469); test: LanthaScreen TR-FRET PXR competitive ligand-binding assay; details: 1.75 μM, compared with vehicle control
T6 sequence (O75469 146-433 limits assumed): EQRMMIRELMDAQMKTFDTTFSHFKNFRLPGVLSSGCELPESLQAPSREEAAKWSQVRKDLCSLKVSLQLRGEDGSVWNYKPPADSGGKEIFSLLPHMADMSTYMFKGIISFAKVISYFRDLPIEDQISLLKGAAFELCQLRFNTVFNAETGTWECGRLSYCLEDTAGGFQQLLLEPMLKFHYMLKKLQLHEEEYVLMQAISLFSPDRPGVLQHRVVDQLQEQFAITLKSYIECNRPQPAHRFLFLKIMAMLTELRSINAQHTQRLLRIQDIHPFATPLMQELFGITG

Sequence of hPXR and SRC-1 interaction (Q15788 whole entry partner, one chain of several, canonical isoform): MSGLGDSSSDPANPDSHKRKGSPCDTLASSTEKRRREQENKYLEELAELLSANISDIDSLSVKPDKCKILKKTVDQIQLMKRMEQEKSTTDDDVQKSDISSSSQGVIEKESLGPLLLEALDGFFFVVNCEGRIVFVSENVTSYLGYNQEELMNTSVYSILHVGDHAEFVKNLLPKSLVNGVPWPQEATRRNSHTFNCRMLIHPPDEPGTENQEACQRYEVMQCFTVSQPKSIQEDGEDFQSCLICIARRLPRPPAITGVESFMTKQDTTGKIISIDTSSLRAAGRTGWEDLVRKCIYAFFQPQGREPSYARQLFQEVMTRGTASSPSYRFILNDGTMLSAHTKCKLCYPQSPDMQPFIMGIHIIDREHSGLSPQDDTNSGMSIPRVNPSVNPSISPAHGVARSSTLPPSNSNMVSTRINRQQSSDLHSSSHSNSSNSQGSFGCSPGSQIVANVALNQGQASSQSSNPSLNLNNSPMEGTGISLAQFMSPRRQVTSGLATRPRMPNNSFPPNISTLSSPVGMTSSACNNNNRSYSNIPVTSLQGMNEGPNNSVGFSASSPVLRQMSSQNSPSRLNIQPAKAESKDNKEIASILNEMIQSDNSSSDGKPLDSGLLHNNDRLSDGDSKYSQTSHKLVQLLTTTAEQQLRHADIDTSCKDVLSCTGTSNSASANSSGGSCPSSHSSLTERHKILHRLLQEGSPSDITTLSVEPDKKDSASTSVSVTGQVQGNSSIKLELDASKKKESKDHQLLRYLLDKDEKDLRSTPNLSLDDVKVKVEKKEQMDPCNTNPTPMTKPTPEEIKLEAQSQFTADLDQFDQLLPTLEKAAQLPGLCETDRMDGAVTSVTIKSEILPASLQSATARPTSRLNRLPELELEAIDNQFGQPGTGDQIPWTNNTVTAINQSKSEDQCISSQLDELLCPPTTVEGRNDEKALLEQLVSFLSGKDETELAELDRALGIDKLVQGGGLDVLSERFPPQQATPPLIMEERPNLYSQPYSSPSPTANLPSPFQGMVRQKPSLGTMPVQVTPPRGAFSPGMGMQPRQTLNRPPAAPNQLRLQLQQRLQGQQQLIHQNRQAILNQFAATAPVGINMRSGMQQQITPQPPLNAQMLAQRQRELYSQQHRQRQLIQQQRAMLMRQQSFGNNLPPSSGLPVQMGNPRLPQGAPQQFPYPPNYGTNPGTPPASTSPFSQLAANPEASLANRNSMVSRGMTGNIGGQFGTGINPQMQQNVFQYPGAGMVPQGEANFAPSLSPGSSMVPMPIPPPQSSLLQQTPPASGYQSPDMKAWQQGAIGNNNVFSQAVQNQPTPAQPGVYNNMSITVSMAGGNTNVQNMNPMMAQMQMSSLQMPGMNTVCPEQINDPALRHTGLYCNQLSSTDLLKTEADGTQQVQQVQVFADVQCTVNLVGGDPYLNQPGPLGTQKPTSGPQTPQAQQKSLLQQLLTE

Cc1ccccc1N1C(=O)c2cc(S(N)(=O)=O)c(Cl)cc2NC1C (centres unmarked) [Metolazone]
CYP3A4 promoter activity with hPXR mutants (hPXR mutants): increased CYP3A4 promoter activity substantially for all PXR mutants except L240A, F281A, and F420A | activation of the CYP3A4-luc reporter (hPXR [1]; final compound concentration 28 μM, DMSO set as 0% and rifampicin at 5 μM set as 100%): 182% | CYP3A4 promoter activity (hPXR R410A; 10 μM MET): 6.43 | CYP3A4 promoter activity (hPXR R410A; 20 μM MET): 4.92 | fold induction at 24 h, 10 μM [2]: 1.96 | fold induction at 24 h, 20 μM [2]: 1.5 | CYP3A4 and MDR1 protein expression [3]: induced CYP3A4 and MDR1 protein expression | cytotoxicity [4]: not significantly cytotoxic even at high concentration | activation of PXR-regulated CYP3A4 promoter activity (hPXR [5]): activator of PXR activity | expression of CYP3A4 and MDR1 mRNA and protein [6]: induced the expression of CYP3A4 and MDR1 mRNA and protein | CYP3A4 promoter activity (wild-type hPXR; 10 μM MET): 3.93 | CYP3A4 promoter activity (wild-type hPXR; 20 μM MET): 4.22 | fold induction at 24 h, 10 μM [7]: 9.83 | fold induction at 24 h, 20 μM [7]: 10.6 | interaction between hPXR and SRC-1 [8]: substantially increased the interaction between hPXR and SRC-1 | inhibition of carbonic anhydrase [9]: very potent | inhibition of carbonic anhydrase [10]: weak inhibitor | tracer binding to hPXR-LBD [11]: decreased tracer binding to hPXR-LBD substantially

NS(=O)(=O)c1cc2c(cc1Cl)N=C(CSCc1ccccc1)NS2(=O)=O [benzthiazide]
activation of PXR-regulated CYP3A4 promoter activity (hPXR [5]): inactive

NS(=O)(=O)c1cc2c(cc1C(F)(F)F)NC(Cc1ccccc1)NS2(=O)=O (centres unmarked) [bendroflumethiazide]
activation of PXR-regulated CYP3A4 promoter activity (hPXR [5]): inactive

CCCCC1C(=O)N(c2ccccc2)N(c2ccccc2)C1=O [phenylbutazone]
PXR activation in the screen (hPXR [1]): PXR activation

NS(=O)(=O)c1cc2c(cc1Cl)NCNS2(=O)=O [hydrochlorothiazide]
activation of PXR-regulated CYP3A4 promoter activity (hPXR [5]): inactive

O=C1Nc2ccc(Cl)cc2[C@@](C#CC2CC2)(C(F)(F)F)O1 [efavirenz]
PXR activation in the screen (hPXR [1]): PXR activation

NS(=O)(=O)c1cc2c(cc1Cl)NC(C1CC3C=CC1C3)NS2(=O)=O (centres unmarked) [cyclothiazide]
activation of PXR-regulated CYP3A4 promoter activity (hPXR [5]): does not activate PXR

Cc1cccc(C)c1NC(=O)c1cc(S(N)(=O)=O)c(Cl)cc1O [xipamide]
activation of PXR-regulated CYP3A4 promoter activity (hPXR [5]): does not possess PXR-activating activity

CC(C)(O)c1ccccc1CC[C@@H](SCC1(CC(=O)O)CC1)c1cccc(/C=C/c2ccc3ccc(Cl)cc3n2)c1 [montelukast]
PXR activation in the screen (hPXR [1]): PXR activation
